According to patent publication US8466273B2, “Hepatitis C virus inhibitors” (priority 2008, dated 2013):

Columns and labels:
[1] = test system: R6FLR-N cells; assay: Cytotoxic activity against HCV-replicating cells (Cell Counting Kit-8 / WST), R6FLR-N; assay type: cell-based
Method: In the same manner as described above, the siRNA were reversely transfected into R6FLR-N cells in a 96-well plate (Falcon). After incubation for 24, 48, and 72 hours, the number of viable cells was counted by a chromogenic reaction at 37° C. for 1 hour using Cell Counting Kit-8 (DOJINDO) following the manufacturer's protocol. The results are expressed relative to the cell survival rate in the groups treated with the control siRNAs defined as 100%. The experiment was performed in triplicate, and the average±S.D. was graphically shown. Statistical analysis was performed by Student's t-test.
FLR3-1 cells and R6FLR-N cells were incubated with the rabbit anti-BGT-1 polyclonal antibody or mouse anti-AKR1C1 polyclonal antibody described above for 72 hours. After incubation, the OD450/650 was measured by a chromogenic reaction at 37° C. for 1 hour using Cell Counting Kit-8 (DOJINDO) following the manufacturer's protocol. Normal rabbit serum was used as a control of the anti-BGT-1 antibody, and normal mouse serum was used as a control of the anti-AKR1C1 antibody. Each antibody was diluted at 1:100-1:10000 in 3% BSA/PBS. The experiment was performed in triplicate, and the average±S.D. was graphically shown. Statistical analysis was performed by Student's t-test.
(§1) In the same manner as described above, the cytotoxic activity of tiagabine (1 mM), NNC05-2090 (0.1-10 μM), and flufenamic acid (1 μM-1 mM) against HCV-replicating cells was evaluated by the WST assay. The experiment was performed in triplicate, and the average±S.D. was graphically shown. Statistical analysis was performed by Student's t-test.

[2] = test system: HCV replication in R6FLR-N cells; assay: HCV replication activity by luciferase assay in R6FLR-N replicon cells; assay type: cell-based, Hepatitis C virus (genotype 1b); details: for replication of HCV (luminescence relative to control siRNA group defined as 100%): 4.2 nM siRNA, 72 hours post-treatment; for minimal effective concentration showing a significant inhibitory effect against HCV replication vs. the control siRNAs: data not shown
From the text: The inhibitory effect against HCV replication can be determined by using HCV replicon cells (Lohmann et al., Science, 1999, 285 (5424):110-113). HCV replicon cells bear a luciferase gene as an indicator gene fused to a nonstructural protein (NS) region necessary for the replication of HCV. HCV replication activity can be measured by luciferase assays. Viral inhibitory activity can also be evaluated by using HCV infection systems (Wakita et al., Nat. Med. 2005, 11 (7), 791-796).
In this study, HCV-replicating cells (FLR3-1 and R6FLR-N) established from Huh-7 replicon cells (Lohmann et al., Science, 1999, 285 (5424):110-3) containing a luciferase-neo fusion gene and three HCV nonstructural protein regions (NS3-NS5b) after G418 selection were used. The use of these cells allows HCV replication activity to be measured by a luciferase assay. The HCV-replicating cells (FLR3-1 or R6FLR-N) were reverted by treatment with interferon α (100 IU/ml) for 72 hours or more to lower the HCV replication level and used as control cells (see Guo J T, Bichko V V, Seeger C., J. Virol. 2001, 75 (18):8516-23). The cells were incubated in Dulbecco's modified Eagle's medium (DMEM) GlutaMax I containing penicillin (100 U/ml), streptomycin (100 μg/ml), G418 (500 μg/ml), and 10% FCS (SIGMA).
The reverse transfection of the siRNAs was performed as follows. In each well of a 96-well plate (Falcon) containing Opti-MEM I medium was added each siRNA at a final concentration of 4.2, 12.6, and 25.2 nM and the plate was gently shaken. Lipofectamine™ RNAiMAX was mixed before use and added to the well (0.1 μl/well), and the plate was gently shaken and allowed to stand for 10-20 minutes at room temperature. R6FLR-N cells were plated at a density of 5×10^3 cells/well and incubated at 37° C. in 5% CO2 for 5 hours. The culture medium was replaced with 10% DMEM-Glutamax, and the cells were further incubated at 37° C. in 5% CO2. A plate containing the medium and Lipofectamine alone without siRNA (“Lipo”) and a plate containing the medium alone (“No”) were used as controls.
After incubation for 24, 48, and 72 hours, the HCV replication activity was measured by a luciferase assay. The replication activity is expressed relative to the luminescence intensity in the groups treated with the control siRNAs (“Ctrl”) defined as 100%. The experiment was performed in triplicate, and the average±S.D. was graphically shown. Statistical analysis was performed by Student's t-test.
FLR3-1 cells and R6FLR-N cells were incubated with a rabbit anti-BGT-1 polyclonal antibody (abcam) or a mouse anti-AKR1C1 polyclonal antibody (Abnova) for 72 hours. After incubation, the relative luminescence unit (RLU) was measured by a luciferase assay to evaluate the inhibitory activity against HCV replication. Normal rabbit serum was used as a control of the anti-BGT-1 antibody, and normal mouse serum was used as a control of the anti-AKR1C1 antibody. Each antibody was diluted at 1:100-1:10000 in 3% BSA/PBS. The experiment was performed in triplicate, and the average±S.D. was graphically shown. Statistical analysis was performed by Student's t-test.
R6FLR-N cells were also incubated with another BGT-1 inhibitor NNC05-2090 for 24-72 hours, and then analyzed by a luciferase assay in the same manner. NNC05-2090 was dissolved in DMSO at a final concentration of 0.1-10 μM (FIG. 7).

[3] = test system: AKR1C1 gene; assay: Inhibition of AKR1C1 gene expression by siRNA, RT-PCR; assay type: cell-based, Homo sapiens; details: data not shown
Method: (§2) The expression of BGT-1 and AKR1C1 and the inhibition of the expression by their siRNAs were analyzed by Western blotting and PCR.
(§3) The inhibition of the expression of the BGT-1 gene and the AKR1C1 gene by their siRNAs was also verified by RT-PCR using the following primers (data not shown): […]

[4] = test system: FLR3-1, R6FLR-N and JFH1 cells; assay: Cytotoxic activity of inhibitors by WST assay in FLR3-1, R6FLR-N and JFH1 cells; assay type: cell-based
Method: HCV-replicating cells were incubated with a BGT-1 inhibitor tiagabine or an AKR1C1 inhibitor flufenamic acid, and the inhibitory effect against HCV replication was evaluated by a luciferase assay. Tiagabine was dissolved in sterile distilled water at a final concentration of 1 mM, and flufenamic acid was dissolved in 1% EtOH at a final concentration of 1 μM-1 mM. The assay was performed after a reaction period of 24 hours in expectation of the rapid action of the inhibitors. The HCV-replicating cells used were FLR3-1, R6FLR-N (both genotype 1b) and JFH1 (genotype 2a: Kato et al., Gastroenterology, 2003, 125 (6):1808-17). The cells incubated in the medium alone were used as “controls”. The experiment was performed in triplicate, and the average±S.D. was graphically shown. Statistical analysis was performed by Student's t-test.
as §1

[5] = test system: BGT-1 gene; assay: Inhibition of BGT-1 gene expression by siRNA, RT-PCR; assay type: cell-based, Homo sapiens; details: data not shown
Method: as §2, §3

COc1ccccc1C1(O)CCN(CCCn2c3ccccc3c3ccccc32)CC1 [NNC05-2090, 1-(3-(9H-carbazol-9-yl)-1-propyl)-4-(2-methoxyphenyl)-4-piperidinol, reference compound]
OD value as % of the vehicle group (WST assay) ([1]; 3 μM, 48 hours post-treatment): about 26%
OD value as % of the vehicle group (WST assay) ([1]; 10 μM, 24 hours post-treatment): about 23%
RLU vs. the vehicle group (DMSO) ([2]; 10 μM, 24 hours, R6FLR-N cells): 30%

siRNA of AKR1C1: siRNA of the AKR1C1 gene, 5′-AAGUAAAGCUUUAGAGGCCACCAAA-3′, nucleotides 93-117 (chemistry not given here)
inhibition of the expression of the AKR1C1 gene by RT-PCR [3]: verified
cell survival rate (relative to control siRNA group defined as 100%) ([1]; 4.2 nM siRNA, 72 hours post-treatment): 53±18%
replication of HCV (luminescence relative to control siRNA group defined as 100%) ([2]; R6FLR-N cells): 40±1%
minimal effective concentration showing a significant inhibitory effect against HCV replication vs. the control siRNAs [2]: 0.5 nM

O=C(O)c1ccccc1Nc1cccc(C(F)(F)F)c1 [flufenamic acid]
OD value as % of the value of the 0 μM group (WST assay) ([4]; 100 μM, all types of HCV-replicating cells): ≤ 80%

Cc1ccsc1C(=CCCN1CCC[C@@H](C(=O)O)C1)c1sccc1C [tiagabine]
cytotoxic activity against HCV-replicating cells (WST assay) ([4]; 1 mM, 24 hours, FLR3-1, R6FLR-N, JFH1 cells): significantly injured HCV-replicating cells in only FLR3-1 cells

siRNA of BGT-1: siRNA of the BGT-1 gene, 5′-CAACAAGAUGGAGUUUGUGCUGUCA-3′, nucleotides 120-144 (chemistry not given here)
inhibition of the expression of the BGT-1 gene by RT-PCR [5]: verified
cytotoxic activity against HCV-replicating cells ([1]; any siRNA concentration tested (4.2, 12.6, 25.2 nM)): any significant cytotoxic activity was not detected
replication of HCV (luminescence relative to control siRNA group defined as 100%) ([2]; R6FLR-N cells): ≤ 10±4%
minimal effective concentration showing a significant inhibitory effect against HCV replication vs. the control siRNAs [2]: 0.5 nM
